Active and inactive are the calls of the source. The calls are words filed in the database; no cut-off is given here.
Tests used:
[1] = molecular target: Beta-2 adrenergic receptor (Cavia porcellus, UniProt Q8K4Z4); assay: Agonist activity at beta2-adrenoceptor in guinea pig trachea assessed as relaxation of histamine-induced precontracted tracheal rings
[2] = molecular target: 3',5'-cyclic-AMP phosphodiesterase 4B (Homo sapiens, UniProt Q07343); assay: Inhibition of human recombinant PDE4B2 assessed as decrease in cAMP hydrolysis preincubated with substrate prior to enzyme addition measured after 30 mins by colorimetric assay method
[3] = molecular target: Beta-2 adrenergic receptor (Cavia porcellus) (UniProt Q8K4Z4); assay: Agonist activity at beta2-adrenoceptor in guinea pig trachea assessed as relaxation of histamine-induced precontracted tracheal rings treated 10 mins after histamine and beta2-adrenoceptor antagonist, ICI 118,551 addition
Sequence of Beta-2 adrenergic receptor (Cavia porcellus) (Q8K4Z4 whole entry, looked up): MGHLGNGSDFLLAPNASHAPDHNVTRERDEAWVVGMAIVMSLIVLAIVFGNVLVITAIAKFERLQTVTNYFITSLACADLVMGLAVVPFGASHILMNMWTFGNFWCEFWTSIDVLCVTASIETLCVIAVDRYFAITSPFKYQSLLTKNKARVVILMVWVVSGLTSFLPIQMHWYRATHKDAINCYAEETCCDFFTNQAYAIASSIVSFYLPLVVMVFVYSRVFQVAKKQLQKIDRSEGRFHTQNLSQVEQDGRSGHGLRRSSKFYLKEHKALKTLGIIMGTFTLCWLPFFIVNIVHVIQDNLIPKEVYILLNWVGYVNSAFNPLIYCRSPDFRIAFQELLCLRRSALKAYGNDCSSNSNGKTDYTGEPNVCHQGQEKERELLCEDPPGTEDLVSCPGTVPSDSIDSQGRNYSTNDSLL

Sequence of Beta-2 adrenergic receptor (Q8K4Z4 whole entry): as the sequence (Q8K4Z4 whole entry, looked up) above
Sequence of 3',5'-cyclic-AMP phosphodiesterase 4B (Q07343 whole entry): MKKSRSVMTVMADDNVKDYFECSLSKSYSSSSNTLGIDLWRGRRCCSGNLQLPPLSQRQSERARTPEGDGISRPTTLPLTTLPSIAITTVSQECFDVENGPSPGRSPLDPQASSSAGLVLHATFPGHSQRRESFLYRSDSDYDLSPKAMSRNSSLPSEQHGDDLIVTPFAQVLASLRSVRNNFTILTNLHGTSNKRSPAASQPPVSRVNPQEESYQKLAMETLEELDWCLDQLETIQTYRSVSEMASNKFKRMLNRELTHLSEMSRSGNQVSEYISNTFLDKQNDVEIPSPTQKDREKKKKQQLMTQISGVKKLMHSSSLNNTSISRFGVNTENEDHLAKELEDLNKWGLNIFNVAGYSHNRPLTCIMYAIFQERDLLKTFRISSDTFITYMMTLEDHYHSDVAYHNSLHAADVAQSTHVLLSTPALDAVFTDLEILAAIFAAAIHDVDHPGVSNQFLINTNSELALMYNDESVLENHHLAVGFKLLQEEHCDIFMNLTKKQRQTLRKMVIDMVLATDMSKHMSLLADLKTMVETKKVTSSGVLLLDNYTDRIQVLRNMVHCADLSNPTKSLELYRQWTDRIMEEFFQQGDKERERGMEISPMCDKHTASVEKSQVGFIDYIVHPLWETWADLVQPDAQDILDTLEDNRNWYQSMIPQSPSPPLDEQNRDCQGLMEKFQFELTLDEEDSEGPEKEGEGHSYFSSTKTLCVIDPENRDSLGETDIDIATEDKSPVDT

## COc1ccc(C2=NN(CCCCCNCC(O)c3ccc(O)c(CO)c3)C(=O)C3CCCCC23)cc1OC (centres undefined)
[1]
  EC50: 0.832 nM
[2]
  IC50: 271 nM

## COc1ccc(C(=O)Nc2c(Cl)cncc2Cl)cc1OCCCCCCNCC(O)c1ccc(O)c(CO)c1 (centres undefined)
[1]
  EC50: 3.16 nM
[2]
  IC50: 235 nM
[3]
  Activity: inactive

## COc1ccc(C(=O)Nc2c(Cl)cncc2Cl)cc1OCCCNCC(O)c1ccc(O)c(CO)c1 (centres undefined)
[1]
  EC50: 3.39 nM
[2]
  IC50: 1090 nM

## COc1ccc(C2=NN(CCNCC(O)c3ccc(O)c(CO)c3)C(=O)C3CCCCC23)cc1OC (centres undefined)
[1]
  EC50: 0.646 nM
[2]
  IC50: 282 nM

## CC(C)NCC(O)c1ccc(O)c(O)c1 (centres undefined) [ISOPROTERENOL]
[1]
  EC50: 28.8 nM

## COc1ccc(C(=O)Nc2c(Cl)cncc2Cl)cc1OCCCCCNCC(O)c1ccc(O)c(CO)c1 (centres undefined)
[1]
  EC50: 1.95 nM
[2]
  IC50: 394 nM

## COc1ccc(C(=O)Nc2c(Cl)cncc2Cl)cc1OCCCCNCC(O)c1ccc(O)c(CO)c1 (centres undefined)
[1]
  EC50: 2.82 nM
[2]
  IC50: 601 nM

## COc1ccc(C2=NN(CCCCNCC(O)c3ccc(O)c(CO)c3)C(=O)C3CCCCC23)cc1OC (centres undefined)
[1]
  EC50: 0.676 nM
[2]
  IC50: 278 nM

## COc1ccc(C2=NN(CCCCCCNCC(O)c3ccc(O)c(CO)c3)C(=O)C3CCCCC23)cc1OC (centres undefined)
[1]
  EC50: 0.631 nM
[2]
  IC50: 263 nM
[3]
  Activity: inactive
